From US20090054368A1, “Substituted gemini surfactant compounds” (University of Saskatchewan, priority 2007, published 2009)
“Also recorded” adds a separate entry of the source.

Legend:
[1] = previous work [11]; cited from earlier work
[2] = tested on: COS-7 African Green monkey kidney fibroblast cells; test: Transfection assay (luciferase production after transfection with plasmid DNA-gemini surfactant complexes); type: cell-based; settings: PG complexes, complexed with DNA in the absence of helper lipid (DOPE)
cultured cells = test: Viability of cells following transfection; type: cell-based; settings: after transfection with plasmid DNA-gemini surfactant-DOPE
Method: Ideal transfection reagents are minimally toxic and/or disruptive to cells. Accordingly, the N-substituted surfactants were tested for toxicity in cultured cells. The viability of cells following transfection with either plasmid DNA-gemini surfactant-DOPE or Lipofectamine Plus are shown in FIG. 3. The aza-substituted surfactants 12-5N-12, 12-8N-12, and 12-7N-12 had similar toxicity compared to the Lipofectamine Plus reagent, with cell viability around 80% of the controls (i.e., no treatment or plasmid DNA alone; p>0.05).

[3] = Small angle X-ray scattering (SAXS) of plasmid DNA-gemini surfactant-DOPE complexes; type: physicochemical; settings: plasmid DNA-gemini surfactant-DOPE complexes
Method: SAXS measurements were carried out at beamline X21 at the National Synchrotron Light Source at Brookhaven National Laboratory. Beamline X21 is based on a wiggler source, with a helium gas-cooled Si(111) monochromator selecting the photon energy. The X-ray beam is focused by a toroidal mirror into the experimental station. Three pairs of precision slits, positioned at 4 m, 1 m, and 5 cm upstream of the sample, define the beam. The scattering pattern is recorded using a 13 cm Mar CCD detector (Mar USA, Evanston, Ill.) located 1.26 m (calibrated with the scattering pattern of silver behenate) downstream of the sample. The measurements were performed with 12 KeV x-rays and the data covered a q-range from 0.008 Å^−1 to 0.375 Å^−1. All beam paths are under vacuum, except at the sample position, where the sample is in air, and kapton windows terminate the vacuum beam paths. Samples were loaded into 1.5 mm capillaries (Charles Supper #15-BG, Natick Mass.) and data recorded at room temperature. All spectra were processed to remove background contributions by subtracting the scattering profile obtained for a water-filled capillary. Peak fitting was carried out using the open-sources software package “fityk” (available at http://www.unipress.waw.pl/fityk/; last accessed on Jul. 5, 2007) using multiple Gaussian functions.
Solutions for SAXS analysis were prepared by addition of appropriate amounts of stock surfactant, DNA, and DOPE solutions, followed by sonication (to ensure complete mixing) where appropriate. The pGTmCMV.IFN-GFP plasmid DNA was used in the SAXS studies. The final concentrations of DNA and DOPE were 0.075 mM (50 μg/mL) and 1.00 mM (0.75 mg/mL), respectively. The concentration of gemini surfactant was adjusted as needed to obtain the desired 1:10 DNA:surfactant charge ratio. Preliminary x-ray scattering studies indicated these concentrations to be too dilute to give good scattering signals; as a result, the samples were concentrated 5× by evaporation.

CCCCCCCCCCCC[N+](C)(C)CCC[N+](C)(C)CCCCCCCCCCCC.[Br-].[Br-] [12-3-12, reference compound]
transfection efficiency within the 12-s-12 series, s=3-8 (in words) [1]: best transfection efficiency; also recorded: most efficient transfection agent
transfection efficiency (in words) [2]: low transfection efficiency
cell viability / toxicity (in words) (cultured cells): not statistically different from the control
phase / morphology of lipid bilayers from scattering pattern (in words) [3]: predominantly hexagonal morphology

CCCCCCCCCCCC[N+](C)(C)CCCCCCCC[N+](C)(C)CCCCCCCCCCCC.[Br-].[Br-] [12-8-12]
transfection efficiency within the 12-s-12 series, s=3-8 (in words) [1]: lowest
